# Data published in ChEMBL document CHEMBL1201861, “Genomics of Drug Sensitity in Cancer screening data, Wellcome Trust Sanger Institute”.
# System: Calu-6;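 also: growth of human Calu-6 cells, read out by a cell viability assay, IC50 marking inhibition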
# Test: cells
# Format: functional, cell-based, Homo sapiens
# Details: Homo sapiens, Calu-6
row,Structure (SMILES),IC50 [µM]
1,COc1cc2c(Nc3ccc(NC(=O)c4ccccc4)cc3)ncnc2cc1OCCCN1CCOCC1,> 4

# System: NCI-H2126;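 also: growth inhibition of the cancer cell line, determined with a cell viability readout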
# Test: cells
# Format: functional, cell-based, Homo sapiens
# Details: Homo sapiens, NCI-H2126
# Description: SANGER: Inhibition of human NCI-H2126 cell growth in a cell viability assay.
row,Structure (SMILES),IC50 [µM]
1,COc1cc2c(Nc3ccc(NC(=O)c4ccccc4)cc3)ncnc2cc1OCCCN1CCOCC1,> 4

# System: AM-38;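 also: growth inhibition of AM-38 cells of human origin, read out by a cell viability assay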
# Test: cells
# Format: functional, cell-based, Homo sapiens
# Details: Homo sapiens, AM-38
# Description: SANGER: Inhibition of human AM-38 cell growth in a cell viability assay.
row,Structure (SMILES),IC50 [µM]
1,COc1cc2c(Nc3ccc(NC(=O)c4ccccc4)cc3)ncnc2cc1OCCCN1CCOCC1,> 4

# System: EW-1;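 also: growth inhibition of the human EW-1 cell line, read out by a cell viability assay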
# Test: cells
# Format: functional, cell-based, Homo sapiens
# Details: Homo sapiens, EW-1
# Description: SANGER: Inhibition of human EW-1 cell growth in a cell viability assay.
row,Structure (SMILES),IC50 [µM]
1,COc1cc2c(Nc3ccc(NC(=O)c4ccccc4)cc3)ncnc2cc1OCCCN1CCOCC1,> 4

# System: NCI-H226;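 also: cell viability read-out used to gauge growth inhibition of the cells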
# Test: cells
# Format: functional, cell-based, Homo sapiens
# Details: Homo sapiens, NCI-H226
# Description: SANGER: Inhibition of human NCI-H226 cell growth in a cell viability assay.
row,Structure (SMILES),IC50 [µM]
1,COc1cc2c(Nc3ccc(NC(=O)c4ccccc4)cc3)ncnc2cc1OCCCN1CCOCC1,> 4

# System: U-87 MG;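 also: growth inhibition of the cells measured with a viability assay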
# Test: cells
# Format: functional, cell-based, Homo sapiens, U-87MG ATCC
# Details: Homo sapiens, U-87 MG
# Description: SANGER: Inhibition of human U-87-MG cell growth in a cell viability assay.
row,Structure (SMILES),IC50 [µM]
1,COc1cc2c(Nc3ccc(NC(=O)c4ccccc4)cc3)ncnc2cc1OCCCN1CCOCC1,> 4

# System: A498;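 also: growth inhibition of human A498 cells, read out with a cell viability assay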
# Test: cells
# Format: functional, cell-based, Homo sapiens
# Details: Homo sapiens, A498
# Description: SANGER: Inhibition of human A498 cell growth in a cell viability assay.
row,Structure (SMILES),IC50 [µM]
1,COc1cc2c(Nc3ccc(NC(=O)c4ccccc4)cc3)ncnc2cc1OCCCN1CCOCC1,2.37

# System: NB5;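 also: growth inhibition of NB5 cells, read out as cell viability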
# Test: cells
# Format: functional, cell-based, Homo sapiens
# Details: Homo sapiens, NB5
# Description: SANGER: Inhibition of human NB5 cell growth in a cell viability assay.
row,Structure (SMILES),IC50 [µM]
1,COc1cc2c(Nc3ccc(NC(=O)c4ccccc4)cc3)ncnc2cc1OCCCN1CCOCC1,1.84

# System: SK-MEL-2;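 also: growth inhibition of human SK-MEL-2 cells measured with a cell viability assay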
# Test: cells
# Format: functional, cell-based, Homo sapiens
# Details: Homo sapiens, SK-MEL-2
# Description: SANGER: Inhibition of human SK-MEL-2 cell growth in a cell viability assay.
row,Structure (SMILES),IC50 [µM]
1,COc1cc2c(Nc3ccc(NC(=O)c4ccccc4)cc3)ncnc2cc1OCCCN1CCOCC1,> 4

# System: TE-9;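 also: cell growth inhibition, measured with a cell viability readout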
# Test: cells
# Format: functional, cell-based, Homo sapiens
# Details: Homo sapiens, TE-9
# Description: SANGER: Inhibition of human TE-9 cell growth in a cell viability assay.
row,Structure (SMILES),IC50 [µM]
1,COc1cc2c(Nc3ccc(NC(=O)c4ccccc4)cc3)ncnc2cc1OCCCN1CCOCC1,> 4

# System: LNCaP-Clone-FGC
# Test: cells
# Format: functional, cell-based, Homo sapiens
# Details: Homo sapiens, LNCaP-Clone-FGC
# Description: SANGER: Inhibition of human LNCaP-Clone-FGC cell growth in a cell viability assay.
row,Structure (SMILES),IC50 [µM]
1,COc1cc2c(Nc3ccc(NC(=O)c4ccccc4)cc3)ncnc2cc1OCCCN1CCOCC1,> 4

# System: ACN;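 also: growth inhibition of the human ACN cell line, read out via cell viability testing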
# Test: cells
# Format: functional, cell-based, Homo sapiens
# Details: Homo sapiens, ACN
# Description: SANGER: Inhibition of human ACN cell growth in a cell viability assay.
row,Structure (SMILES),IC50 [µM]
1,COc1cc2c(Nc3ccc(NC(=O)c4ccccc4)cc3)ncnc2cc1OCCCN1CCOCC1,> 4

# System: NCI-H1092;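 also: cell growth inhibition measured with a cell viability assay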
# Test: cells
# Format: functional, cell-based, Homo sapiens
# Details: Homo sapiens, NCI-H1092
# Description: SANGER: Inhibition of human NCI-H1092 cell growth in a cell viability assay.
row,Structure (SMILES),IC50 [µM]
1,COc1cc2c(Nc3ccc(NC(=O)c4ccccc4)cc3)ncnc2cc1OCCCN1CCOCC1,> 4

# System: UACC-257
# Test: cells
# Format: functional, cell-based, Homo sapiens
# Details: Homo sapiens, UACC-257
# Description: SANGER: Inhibition of human UACC-257 cell growth in a cell viability assay.
row,Structure (SMILES),IC50 [µM]
1,COc1cc2c(Nc3ccc(NC(=O)c4ccccc4)cc3)ncnc2cc1OCCCN1CCOCC1,> 4

# System: C8166;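 also: growth inhibition of human C8166 cells measured by a cell viability assay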
# Test: cells
# Format: functional, cell-based, Homo sapiens
# Details: Homo sapiens, C8166
# Description: SANGER: Inhibition of human C8166 cell growth in a cell viability assay.
row,Structure (SMILES),IC50 [µM]
1,COc1cc2c(Nc3ccc(NC(=O)c4ccccc4)cc3)ncnc2cc1OCCCN1CCOCC1,> 4

# System: D-263MG
# Test: cells
# Format: functional, cell-based, Homo sapiens
# Details: Homo sapiens, D-263MG
# Description: SANGER: Inhibition of human D-263MG cell growth in a cell viability assay.
row,Structure (SMILES),IC50 [µM]
1,COc1cc2c(Nc3ccc(NC(=O)c4ccccc4)cc3)ncnc2cc1OCCCN1CCOCC1,2.71

# System: LC-2-ad;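 also: growth inhibition of human LC-2-ad cells, read out with a cell viability assay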
# Test: cells
# Format: functional, cell-based, Homo sapiens
# Details: Homo sapiens, LC-2-ad
# Description: SANGER: Inhibition of human LC-2-ad cell growth in a cell viability assay.
row,Structure (SMILES),IC50 [µM]
1,COc1cc2c(Nc3ccc(NC(=O)c4ccccc4)cc3)ncnc2cc1OCCCN1CCOCC1,> 4

# System: SK-PN-DW;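 also: growth inhibition measured with a viability assay on these cells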
# Test: cells
# Format: functional, cell-based, Homo sapiens
# Details: Homo sapiens, SK-PN-DW
# Description: SANGER: Inhibition of human SK-PN-DW cell growth in a cell viability assay.
row,Structure (SMILES),IC50 [µM]
1,COc1cc2c(Nc3ccc(NC(=O)c4ccccc4)cc3)ncnc2cc1OCCCN1CCOCC1,> 4

# System: DB
# Test: cells
# Format: functional, cell-based, Homo sapiens
# Details: Homo sapiens, DB
# Description: SANGER: Inhibition of human DB cell growth in a cell viability assay.
row,Structure (SMILES),IC50 [µM]
1,COc1cc2c(Nc3ccc(NC(=O)c4ccccc4)cc3)ncnc2cc1OCCCN1CCOCC1,> 4

# System: KM12;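 also: KM12 cell growth inhibition, read out with a cell viability assay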
# Test: cells
# Format: functional, cell-based, Homo sapiens
# Details: Homo sapiens, KM12
# Description: SANGER: Inhibition of human KM12 cell growth in a cell viability assay.
row,Structure (SMILES),IC50 [µM]
1,COc1cc2c(Nc3ccc(NC(=O)c4ccccc4)cc3)ncnc2cc1OCCCN1CCOCC1,> 4

# System: RS4-11;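 also: growth inhibition of RS4-11 cells, read out by a cell viability assay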
# Test: cells
# Format: functional, cell-based, Homo sapiens
# Details: Homo sapiens, RS4-11
# Description: SANGER: Inhibition of human RS4-11 cell growth in a cell viability assay.
row,Structure (SMILES),IC50 [µM]
1,COc1cc2c(Nc3ccc(NC(=O)c4ccccc4)cc3)ncnc2cc1OCCCN1CCOCC1,0.554

# System: NH-12;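 also: growth inhibition of NH-12 cells, read out with a cell viability assay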
# Test: cells
# Format: functional, cell-based, Homo sapiens
# Details: Homo sapiens, NH-12
# Description: SANGER: Inhibition of human NH-12 cell growth in a cell viability assay.
row,Structure (SMILES),IC50 [µM]
1,COc1cc2c(Nc3ccc(NC(=O)c4ccccc4)cc3)ncnc2cc1OCCCN1CCOCC1,3.28

# System: HT-144
# Test: cells
# Format: functional, cell-based, Homo sapiens
# Details: Homo sapiens, HT-144
# Description: SANGER: Inhibition of human HT-144 cell growth in a cell viability assay.
row,Structure (SMILES),IC50 [µM]
1,COc1cc2c(Nc3ccc(NC(=O)c4ccccc4)cc3)ncnc2cc1OCCCN1CCOCC1,> 4

# System: HT
# Test: cells
# Format: functional, cell-based, Homo sapiens
# Details: Homo sapiens, HT
# Description: SANGER: Inhibition of human HT cell growth in a cell viability assay.
row,Structure (SMILES),IC50 [µM]
1,COc1cc2c(Nc3ccc(NC(=O)c4ccccc4)cc3)ncnc2cc1OCCCN1CCOCC1,> 4

# System: RXF 393;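 also: growth inhibition of human RXF 393 cells, read out with a cell viability assay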
# Test: cells
# Format: functional, cell-based, Homo sapiens
# Details: Homo sapiens, RXF 393
# Description: SANGER: Inhibition of human RXF393 cell growth in a cell viability assay.
row,Structure (SMILES),IC50 [µM]
1,COc1cc2c(Nc3ccc(NC(=O)c4ccccc4)cc3)ncnc2cc1OCCCN1CCOCC1,3.49

# System: LB996-RCC
# Test: cells
# Format: functional, cell-based, Homo sapiens
# Details: Homo sapiens, LB996-RCC
# Description: SANGER: Inhibition of human LB996-RCC cell growth in a cell viability assay.
row,Structure (SMILES),IC50 [µM]
1,COc1cc2c(Nc3ccc(NC(=O)c4ccccc4)cc3)ncnc2cc1OCCCN1CCOCC1,> 4

# System: SJSA-1;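 also: growth inhibition of human SJSA-1 cells, read out through a cell viability measurement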
# Test: cells
# Format: functional, cell-based, Homo sapiens
# Details: Homo sapiens, SJSA-1
# Description: SANGER: Inhibition of human SJSA-1 cell growth in a cell viability assay.
row,Structure (SMILES),IC50 [µM]
1,COc1cc2c(Nc3ccc(NC(=O)c4ccccc4)cc3)ncnc2cc1OCCCN1CCOCC1,> 4

# System: MZ1-PC;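 also: cell viability assay measuring growth inhibition of human MZ1-PC cells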
# Test: cells
# Format: functional, cell-based, Homo sapiens
# Details: Homo sapiens, MZ1-PC
# Description: SANGER: Inhibition of human MZ1-PC cell growth in a cell viability assay.
row,Structure (SMILES),IC50 [µM]
1,COc1cc2c(Nc3ccc(NC(=O)c4ccccc4)cc3)ncnc2cc1OCCCN1CCOCC1,> 4

# System: HEL;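 also: growth inhibition of HEL cells, read out with a cell viability assay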
# Test: cells
# Format: functional, cell-based, Homo sapiens
# Details: Homo sapiens, HEL
# Description: SANGER: Inhibition of human HEL cell growth in a cell viability assay.
row,Structure (SMILES),IC50 [µM]
1,COc1cc2c(Nc3ccc(NC(=O)c4ccccc4)cc3)ncnc2cc1OCCCN1CCOCC1,> 4

# System: NCI-H446;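 also: growth inhibition of NCI-H446 cells determined by a cell viability assay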
# Test: cells
# Format: functional, cell-based, Homo sapiens
# Details: Homo sapiens, NCI-H446
# Description: SANGER: Inhibition of human NCI-H446 cell growth in a cell viability assay.
row,Structure (SMILES),IC50 [µM]
1,COc1cc2c(Nc3ccc(NC(=O)c4ccccc4)cc3)ncnc2cc1OCCCN1CCOCC1,> 4

# System: D-247MG
# Test: cells
# Format: functional, cell-based, Homo sapiens
# Details: Homo sapiens, D-247MG
# Description: SANGER: Inhibition of human D-247MG cell growth in a cell viability assay.
row,Structure (SMILES),IC50 [µM]
1,COc1cc2c(Nc3ccc(NC(=O)c4ccccc4)cc3)ncnc2cc1OCCCN1CCOCC1,> 4

# System: HCC2218;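 also: cell viability assay read-out, with IC50 given as the concentration that inhibits growth of the cell line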
# Test: cells
# Format: functional, cell-based, Homo sapiens
# Details: Homo sapiens, HCC2218
# Description: SANGER: Inhibition of human HCC2218 cell growth in a cell viability assay.
row,Structure (SMILES),IC50 [µM]
1,COc1cc2c(Nc3ccc(NC(=O)c4ccccc4)cc3)ncnc2cc1OCCCN1CCOCC1,> 4

# System: SCH;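 also: growth inhibition of human SCH cells, read out in a cell viability assay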
# Test: cells
# Format: functional, cell-based, Homo sapiens
# Details: Homo sapiens, SCH
# Description: SANGER: Inhibition of human SCH cell growth in a cell viability assay.
row,Structure (SMILES),IC50 [µM]
1,COc1cc2c(Nc3ccc(NC(=O)c4ccccc4)cc3)ncnc2cc1OCCCN1CCOCC1,> 4

# System: TE-10;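 also: growth inhibition of TE-10 cells, measured by a cell viability assay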
# Test: cells
# Format: functional, cell-based, Homo sapiens
# Details: Homo sapiens, TE-10
# Description: SANGER: Inhibition of human TE-10 cell growth in a cell viability assay.
row,Structure (SMILES),IC50 [µM]
1,COc1cc2c(Nc3ccc(NC(=O)c4ccccc4)cc3)ncnc2cc1OCCCN1CCOCC1,> 4

# System: JAR;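 also: growth inhibition of human JAR cells determined with a cell viability assay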
# Test: cells
# Format: functional, cell-based, Homo sapiens
# Details: Homo sapiens, JAR
# Description: SANGER: Inhibition of human JAR cell growth in a cell viability assay.
row,Structure (SMILES),IC50 [µM]
1,COc1cc2c(Nc3ccc(NC(=O)c4ccccc4)cc3)ncnc2cc1OCCCN1CCOCC1,> 4

# System: SNU-5;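 also: cell viability readout used to measure growth inhibition in human NCI-SNU-5 cells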
# Test: cells
# Format: functional, cell-based, Homo sapiens
# Details: Homo sapiens, SNU-5
# Description: SANGER: Inhibition of human NCI-SNU-5 cell growth in a cell viability assay.
row,Structure (SMILES),IC50 [µM]
1,COc1cc2c(Nc3ccc(NC(=O)c4ccccc4)cc3)ncnc2cc1OCCCN1CCOCC1,> 4

# System: Ramos-2G6-4C10;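 also: growth inhibition of the cell line, measured by a cell viability read-out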
# Test: cells
# Format: functional, cell-based, Homo sapiens
# Details: Homo sapiens, Ramos-2G6-4C10
# Description: SANGER: Inhibition of human Ramos-2G6-4C10 cell growth in a cell viability assay.
row,Structure (SMILES),IC50 [µM]
1,COc1cc2c(Nc3ccc(NC(=O)c4ccccc4)cc3)ncnc2cc1OCCCN1CCOCC1,1.41

# System: NB10;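 also: growth inhibition of NB10 cells, read out by a cell viability assay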
# Test: cells
# Format: functional, cell-based, Homo sapiens
# Details: Homo sapiens, NB10
# Description: SANGER: Inhibition of human NB10 cell growth in a cell viability assay.
row,Structure (SMILES),IC50 [µM]
1,COc1cc2c(Nc3ccc(NC(=O)c4ccccc4)cc3)ncnc2cc1OCCCN1CCOCC1,> 4

# System: MZ7-mel;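 also: growth inhibition of human MZ7-mel cells, measured by a cell viability assay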
# Test: cells
# Format: functional, cell-based, Homo sapiens
# Details: Homo sapiens, MZ7-mel
# Description: SANGER: Inhibition of human MZ7-mel cell growth in a cell viability assay.
row,Structure (SMILES),IC50 [µM]
1,COc1cc2c(Nc3ccc(NC(=O)c4ccccc4)cc3)ncnc2cc1OCCCN1CCOCC1,> 4

# System: SW684;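 also: growth inhibition of human SW684 cells, measured by a cell viability assay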
# Test: cells
# Format: functional, cell-based, Homo sapiens
# Details: Homo sapiens, SW684
# Description: SANGER: Inhibition of human SW684 cell growth in a cell viability assay.
row,Structure (SMILES),IC50 [µM]
1,COc1cc2c(Nc3ccc(NC(=O)c4ccccc4)cc3)ncnc2cc1OCCCN1CCOCC1,> 4

# System: TE-6;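 also: growth inhibition of TE-6 cells, read out with a cell viability assay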
# Test: cells
# Format: functional, cell-based, Homo sapiens
# Details: Homo sapiens, TE-6
# Description: SANGER: Inhibition of human TE-6 cell growth in a cell viability assay.
row,Structure (SMILES),IC50 [µM]
1,COc1cc2c(Nc3ccc(NC(=O)c4ccccc4)cc3)ncnc2cc1OCCCN1CCOCC1,> 4

# System: Becker;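 also: growth inhibition of Becker cells, read out with a cell viability assay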
# Test: cells
# Format: functional, cell-based, Homo sapiens
# Details: Homo sapiens, Becker
# Description: SANGER: Inhibition of human Becker cell growth in a cell viability assay.
row,Structure (SMILES),IC50 [µM]
1,COc1cc2c(Nc3ccc(NC(=O)c4ccccc4)cc3)ncnc2cc1OCCCN1CCOCC1,> 4

# System: BT-474
# Test: cells
# Format: functional, cell-based, Homo sapiens
# Details: Homo sapiens, BT-474
# Description: SANGER: Inhibition of human BT-474 cell growth in a cell viability assay.
row,Structure (SMILES),IC50 [µM]
1,COc1cc2c(Nc3ccc(NC(=O)c4ccccc4)cc3)ncnc2cc1OCCCN1CCOCC1,> 4

# System: DU-4475
# Test: cells
# Format: functional, cell-based, Homo sapiens
# Details: Homo sapiens, DU-4475
# Description: SANGER: Inhibition of human DU-4475 cell growth in a cell viability assay.
row,Structure (SMILES),IC50 [µM]
1,COc1cc2c(Nc3ccc(NC(=O)c4ccccc4)cc3)ncnc2cc1OCCCN1CCOCC1,> 4

# System: NCI-H69;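 also: growth inhibition of the cell line, read out with a cell viability assay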
# Test: cells
# Format: functional, cell-based, Homo sapiens
# Details: Homo sapiens, NCI-H69
# Description: SANGER: Inhibition of human NCI-H69 cell growth in a cell viability assay.
row,Structure (SMILES),IC50 [µM]
1,COc1cc2c(Nc3ccc(NC(=O)c4ccccc4)cc3)ncnc2cc1OCCCN1CCOCC1,> 4

# System: QIMR-WIL;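 also: growth inhibition of QIMR-WIL cells, read out with a cell viability assay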
# Test: cells
# Format: functional, cell-based, Homo sapiens
# Details: Homo sapiens, QIMR-WIL
# Description: SANGER: Inhibition of human QIMR-WIL cell growth in a cell viability assay.
row,Structure (SMILES),IC50 [µM]
1,COc1cc2c(Nc3ccc(NC(=O)c4ccccc4)cc3)ncnc2cc1OCCCN1CCOCC1,2.06
